Measured values: DBAASP
In brackets after ≈: the same amount, converted by molar mass.

Key:
Test in all cases: ≥ marks a high value that may be exact or a test limit, other limits are often not marked, values filed in µg/mL are converted to µM
[1] = test system: Alternaria sp. PHI-44
[2] = test system: Aspergillus nidulans biA1
[3] = test system: Bacillus subtilis CECT 498
[4] = test system: Botrytis cinerea #8
[5] = test system: Escherichia coli DH5alpha
[6] = test system: Fusarium oxysporum CECT 2866
[7] = test system: Penicillium digitatum PHI-26
[8] = test system: Penicillium expansum PHI-65
[9] = test system: Penicillium italicum PHI-1
[10] = test system: Penicillium sp. PHI-8
[11] = test system: Pyricularia grisea PR-9
[12] = test system: Saccharomyces cerevisiae FY1679
[13] = test system: Escherichia coli ATCC 25404
[14] = test system: Escherichia coli O157
[15] = test system: Listeria monocytogenes
[16] = test system: Micrococcus luteus ATCC 10420
[17] = test system: Salmonella typhimurium
[18] = test system: Staphylococcus aureus ATCC 29213
[19] = test system: Staphylococcus aureus ATCC 43300
[20] = test system: Staphylococcus epidermidis ATCC 9709
[21] = test system: Bacillus megaterium Bm11
[22] = test system: Candida albicans ATCC 10231
[23] = test system: Escherichia coli ATCC 25922
[24] = test system: Staphylococcus aureus Cowan 1
[25] = test system: Staphylococcus capitis 1
[26] = test system: Yersinia pseudotuberculosis YPIII
[27] = test system: Acinetobacter baumannii NM8
[28] = test system: Candida albicans ATCC 90028
[29] = test system: Escherichia coli ATCC 25726
[30] = test system: Klebsiella pneumoniae ATCC 700603
[31] = test system: Pseudomonas aeruginosa ATCC 27853
[32] = test system: Staphylococcus aureus ATCC 25923
[33] = test system: Staphylococcus epidermidis RP62A/1
[34] = test system: Staphylococcus epidermidis RP62A
[35] = test system: Stenotrophomonas maltophilia B32/4
[36] = test system: Bacillus subtilis CCT 2576
[37] = test system: Pseudomonas aeruginosa ATCC 15422
[38] = test system: Staphylococcus aureus ATCC 6538
[39] = test system: Bacillus subtilis KCTC 1918
[40] = test system: Candida albicans CCARM 14001
[41] = test system: Candida albicans CCARM 14007
[42] = test system: Candida albicans KCTC 7270
[43] = test system: Escherichia coli CCARM 1229
[44] = test system: Escherichia coli CCARM 1238
[45] = test system: Escherichia coli KCTC 1682
[46] = test system: Listeria monocytogenes KCTC 3710
[47] = test system: Pseudomonas aeruginosa KCTC 1637
[48] = test system: Salmonella typhimurium CCARM 8007
[49] = test system: Salmonella typhimurium CCARM 8009
[50] = test system: Salmonella typhimurium CCARM 8013
[51] = test system: Salmonella typhimurium KCTC 1926
[52] = test system: Staphylococcus aureus CCARM 3089
[53] = test system: Staphylococcus aureus CCARM 3090
[54] = test system: Staphylococcus aureus CCARM 3108
[55] = test system: Staphylococcus aureus CCARM 3114
[56] = test system: Staphylococcus aureus CCARM 3126
[57] = test system: Staphylococcus aureus KCTC 1621

CSCC[C@H](NC(=O)[C@H](CCCN=C(N)N)NC(=O)[C@H](Cc1c[nH]c2ccccc12)NC(=O)[C@H](CCC(N)=O)NC(=O)[C@H](Cc1c[nH]c2ccccc12)NC(=O)[C@H](CCCN=C(N)N)NC(=O)[C@H](CCCN=C(N)N)NC(=O)[C@H](CS)NC(=O)[C@H](CCCCN)NC(=O)[C@H](Cc1ccccc1)NC(C)=O)C(=O)N[C@@H](CCCCN)C(=O)N[C@@H](CCCCN)C(=O)N[C@@H](CC(C)C)C(=O)NCC(=O)N[C@@H](C)C(N)=O [FKCRRWQWRMKKLGA] showed an MIC [1] of 16 µM (≈ 32.6 µg/mL), an MIC [2] of 4 µM (≈ 8.14 µg/mL) and an MIC [3] of 16 µM (≈ 32.6 µg/mL). It also gave an MIC [4] of 16 µM (≈ 32.6 µg/mL), an MIC [5] of 16 µM (≈ 32.6 µg/mL) and an MIC [6] of 8 µM (≈ 16.3 µg/mL). For the same molecule, the MIC [7] was 4 µM (≈ 8.14 µg/mL), the MIC [8] was 8 µM (≈ 16.3 µg/mL) and the MIC [9] was 4 µM (≈ 8.14 µg/mL). The MIC [10] was 8 µM (≈ 16.3 µg/mL), the MIC [11] was at least 32 µM and the MIC [12] was at least 32 µM.

For CC(C)C[C@H](NC(=O)[C@H](CC(C)C)NC(=O)[C@H](CCCCN)NC(=O)[C@H](CO)NC(=O)[C@H](CC(C)C)NC(=O)[C@H](C)NC(=O)[C@H](Cc1cnc[nH]1)NC(=O)[C@H](Cc1ccccc1)NC(=O)[C@H](CC(C)C)NC(=O)[C@H](C)NC(=O)CNC(=O)[C@H](CC(C)C)NC(=O)[C@@H](N)Cc1ccccc1)C(=O)O [FLGALFHALSKLL], the MIC [13] was at least 64 µM, the MIC [14] was at least 64 µM and the MIC [15] was 8 µM (≈ 11.4 µg/mL). For the same molecule, the MIC [16] was 2 µM (≈ 2.86 µg/mL), the MIC [17] was at least 64 µM and the MIC [18] was 4 µM (≈ 5.72 µg/mL). The MIC [19] was 4 µM (≈ 5.72 µg/mL) and the MIC [20] was 4 µM (≈ 5.72 µg/mL).

Work on CC[C@H](C)[C@H](NC(=O)CNC(=O)[C@H](CO)NC(=O)[C@H](CC(C)C)NC(=O)[C@@H](NC(=O)[C@H](CCCN=C(N)N)NC(=O)CNC(=O)[C@@H](NC(=O)[C@H](CC(C)C)NC(=O)[C@@H]1CCCN1C(=O)[C@H](CC(C)C)NC(=O)[C@@H](N)Cc1ccccc1)[C@@H](C)CC)C(C)C)C(=O)N[C@@H](C)C(N)=O [FLPLIGRVLSGIA] yielded an MIC [21] of 20 µM (≈ 27.1 µg/mL), an MIC [22] of 40 µM (≈ 54.2 µg/mL) and an MIC [23] of over 40 µM. The MIC [24] was at least 40 µM, the MIC [25] was at least 40 µM and the MIC [26] was at least 40 µM.

In the case of CC[C@H](C)[C@H](N)C(=O)N[C@@H](CC(C)C)C(=O)N[C@@H](CCCCN)C(=O)N[C@@H](CCCCN)C(=O)N[C@@H](CC(C)C)C(=O)N[C@@H](CC(C)C)C(=O)N[C@@H](CO)C(=O)N[C@H](C(=O)N[C@@H](C)C(=O)N[C@@H](C)C(=O)NCC(=O)N[C@@H](CC(C)C)C(=O)N[C@@H](CC(C)C)C(=O)N[C@@H](CO)C(=O)N[C@@H](CC(N)=O)C(=O)N[C@@H](CC(C)C)C(N)=O)[C@@H](C)O [ILKKLLSTAAGLLSNL], the MIC [27] is reported as 16 µM (≈ 26.5 µg/mL), the MIC [28] is reported as at least 32 µM and the MIC [29] is reported as at least 32 µM. It also gave an MIC [30] of 128 µM (≈ 212 µg/mL), an MIC [31] of 128 µM (≈ 212 µg/mL) and an MIC [32] of 64 µM (≈ 106 µg/mL). It also gave an MIC [33] of 16 µM (≈ 26.5 µg/mL), an MIC [34] of at least 32 µM and an MIC [35] of at least 32 µM.

With CC[C@H](C)[C@H](N)C(=O)N[C@@H](CC(N)=O)C(=O)N[C@@H](Cc1c[nH]c2ccccc12)C(=O)N[C@@H](CCCCN)C(=O)N[C@@H](CCCCN)C(=O)N[C@@H](CC(C)C)C(=O)N[C@@H](CC(C)C)C(=O)N[C@@H](CC(=O)O)C(=O)N[C@@H](C)C(=O)N[C@@H](C)C(=O)N[C@@H](CCCCN)C(=O)N[C@@H](CCC(N)=O)C(=O)N[C@H](C(=O)N[C@@H](CC(C)C)C(N)=O)[C@@H](C)CC [INWKKLLDAAKQIL] the MIC [36] was 2.96 µM (≈ 4.9 µg/mL), the MIC [23] was 5.8 µM (≈ 9.59 µg/mL) and the MIC [37] was 28.3 µM (≈ 46.8 µg/mL). It also gave an MIC [38] of 7.8 µM (≈ 12.9 µg/mL).

Work on NCCCC[C@H](NC(=O)[C@H](Cc1c[nH]c2ccccc12)NC(=O)[C@@H](N)CCCCN)C(=O)N[C@@H](Cc1c[nH]c2ccccc12)C(N)=O [KWKW] yielded an MIC [39] of at least 200 µM, an MIC [40] of at least 128 µM and an MIC [41] of at least 128 µM. The MIC [42] was at least 128 µM, the MIC [43] was at least 200 µM and the MIC [44] was at least 200 µM. The MIC [45] was at least 200 µM, the MIC [46] was at least 200 µM and the MIC [47] was at least 200 µM. The MIC [48] was at least 309 µM, the MIC [49] was at least 200 µM and the MIC [50] was at least 200 µM. It also gave an MIC [51] of at least 200 µM, an MIC [52] of at least 200 µM and an MIC [53] of at least 200 µM. It also gave an MIC [54] of at least 200 µM, an MIC [55] of at least 200 µM and an MIC [56] of at least 200 µM. For the same molecule, the MIC [57] was at least 200 µM.
